Test results: PubChem BioAssay (NCI)
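48-hour exposure; five concentrations; linearly interpolated endpoints. At the GI50, growth is halved. The concentration for full growth arrest is given as TGI.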

Tests used:
Experiment in all cases: NCI anticancer screen, dose series, 48 h
HCC-2998 colon = system: HCC-2998 colon
DU-145 prostate = system: DU-145 prostate
BT-549 breast = system: BT-549 breast
NCI/ADR-RES ovarian = system: NCI/ADR-RES ovarian
A549 NSCLC = system: A549 NSCLC
OVCAR-8 ovarian = system: OVCAR-8 ovarian
RXF 393 renal = system: RXF 393 renal
SW-620 colon = system: SW-620 colon
MDA-MB-435 = system: MDA-MB-435
SK-MEL-28 melanoma = system: SK-MEL-28 melanoma

Row | SMILES | GI50 (HCC-2998 colon) [nM] | TGI (HCC-2998 colon) [nM] | GI50 (DU-145 prostate) [nM] | TGI (DU-145 prostate) [nM] | GI50 (BT-549 breast) [nM] | TGI (BT-549 breast) [nM] | GI50 (NCI/ADR-RES ovarian) [nM] | TGI (NCI/ADR-RES ovarian) [nM] | GI50 (A549 NSCLC) [nM] | TGI (A549 NSCLC) [nM] | GI50 (OVCAR-8 ovarian) [nM] | TGI (OVCAR-8 ovarian) [nM] | GI50 (RXF 393 renal) [nM] | TGI (RXF 393 renal) [nM] | GI50 (SW-620 colon) [nM] | TGI (SW-620 colon) [nM] | GI50 (MDA-MB-435) [nM] | TGI (MDA-MB-435) [nM] | GI50 (SK-MEL-28 melanoma) [nM] | TGI (SK-MEL-28 melanoma) [nM]
1 | CCC[CH2][Sn]1([CH2]CCC)[O]C(=O)c2ccc(N)cc2[O]1 | 855 | 2480 | 1260 | 2520 | 150 | 985 | 1760 | 4120 | 2620 | 7400 | 909 | 2490 | 112 | 427 | 224 | 1090 | 1580 | 3080 | 397 | 1480
2 | CCOC(=O)Nc1nc2cc(OCC)ccc2s1 | > 41300 | > 100000 | > 100000 | > 100000 | > 100000 | > 100000 | 6020 | > 100000 | 9830 | > 100000 | > 76100 | > 100000 | > 100000 | > 100000 | 4740 | > 100000 | 923 | 5150 | > 100000 | > 100000
3 | Cc1ccc2sc3ccc(N)cc3c(=O)c2c1 | – | > 100000 | – | > 100000 | – | > 100000 | – | > 100000 | – | > 100000 | – | > 100000 | – | > 100000 | – | > 100000 | – | > 100000 | – | > 100000
4 | COc1ccc([C@@H](O)c2cc(-c3ncnc4cc(N5CCOCC5)ccc34)c(F)cc2Cl)nn1 | 2850 | 18700 | 3890 | > 100000 | 1440 | 20300 | 4870 | 95400 | 2770 | 21000 | 5920 | 78400 | 678 | 11600 | 6780 | 52200 | 4180 | 37400 | 2070 | 38100
5 | COC(=O)[C@@]1(C)CCC[C@]2(C(=O)O)C3Cc4occc4[C@H](C)[C@@H]3CCC21 (stereo not given in full) | – | > 100000 | – | > 100000 | – | > 100000 | – | 82000 | – | > 100000 | – | > 100000 | – | > 100000 | – | > 100000 | – | > 100000 | – | > 100000
6 | COc1cc(/C=C2\CN(C(=O)CCN3CCC(=NO)CC3)C/C(=C\c3cc(OC)c(OC)c(OC)c3)C2=O)cc(OC)c1OC | 340 | 724 | 657 | 1700 | 332 | 1230 | 2710 | > 100000 | 1150 | 5820 | 444 | > 35600 | 354 | 999 | 273 | 860 | 239 | 637 | 279 | 766
7 | Oc1c(CN2CCCC2)cc(CSCc2ccccc2)c2cccnc12 | 1390 | 11900 | 1280 | 10700 | 2270 | 12100 | 98.9 | 807 | 1730 | 10600 | 462 | 9790 | 772 | 3740 | 797 | 11200 | 1400 | 13600 | 1850 | 13600
8 | Clc1ccc2c(c1)C(N1CCNCC1)=Nc1ccccc1O2 | 1580 | 2920 | 4180 | 15400 | 2420 | 10200 | 1990 | 5120 | 4500 | 16900 | 1860 | 4000 | 1220 | 2770 | 1620 | 3150 | 1650 | 3110 | 1610 | 2960
